# Source: PubChem BioAssay AID2060604 (Molecular Pharmacology Branch, DTP, NCI, 2025)
# Test system: 379773-124-R-J2-PDC complex spheroids, viability % test/control
# Experiment: Anticancer human tumor 379773-124-R-J2-PDC patient-derived endometrial carcinoma cell line growth inhibition [CLK]
# Settings: for IC50: curve of first compound; for viability, T/C: stronger effect = lower value
# Procedure, shortened: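 Multi-cell-type spheroids combined patient-derived tumor cells with HUVEC endothelial cells and human mesenchymal stem cells. Paired agents were dosed in half-log steps down from about clinical Cmax, or from 10 microM where Cmax was unknown.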
# [1] = second compound 0.0316 µM, first compound 0.0316 µM
# [2] = second compound 0.0316 µM, first compound 0.1 µM
# [3] = second compound 0.0316 µM, first compound 0.316 µM
# [4] = second compound 0.0316 µM, first compound 1 µM
# [5] = second compound 0.0316 µM, first compound 3.16 µM
# [6] = second compound 0.0316 µM, first compound 10 µM
# [7] = second compound 0.1 µM, first compound 0.0316 µM
# [8] = second compound 0.1 µM, first compound 0.1 µM
# [9] = second compound 0.1 µM, first compound 0.316 µM
# [10] = second compound 0.1 µM, first compound 1 µM
# [11] = second compound 0.1 µM, first compound 3.16 µM
# [12] = second compound 0.1 µM, first compound 10 µM
# [13] = second compound 0.316 µM, first compound 0.0316 µM
# [14] = second compound 0.316 µM, first compound 0.1 µM
# [15] = second compound 0.316 µM, first compound 0.316 µM
# [16] = second compound 0.316 µM, first compound 1 µM
# [17] = second compound 0.316 µM, first compound 3.16 µM
# [18] = second compound 0.316 µM, first compound 10 µM
# [19] = second compound 1 µM, first compound 0.0316 µM
# [20] = second compound 1 µM, first compound 0.1 µM
# [21] = second compound 1 µM, first compound 0.316 µM
# [22] = second compound 1 µM, first compound 1 µM
# [23] = second compound 1 µM, first compound 3.16 µM
# [24] = second compound 1 µM, first compound 10 µM
# [25] = second compound 3.16 µM, first compound 0.0316 µM
# [26] = second compound 3.16 µM, first compound 0.1 µM
# [27] = second compound 3.16 µM, first compound 0.316 µM
# [28] = second compound 3.16 µM, first compound 1 µM
# [29] = second compound 3.16 µM, first compound 3.16 µM
# [30] = second compound 3.16 µM, first compound 10 µM
# [31] = second compound 10 µM, first compound 0.0316 µM
# [32] = second compound 10 µM, first compound 0.1 µM
# [33] = second compound 10 µM, first compound 0.316 µM
# [34] = second compound 10 µM, first compound 1 µM
# [35] = second compound 10 µM, first compound 3.16 µM
# [36] = second compound 10 µM, first compound 10 µM
# 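Further: compound exposure lasted seven days before the viability readout.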
# 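Wherever viability, T/C is given: 100% = DMSO vehicle control wells.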
structure (smiles),measurement,setting,value
CC(C)CC(NC(=O)C(Cc1ccccc1)NC(=O)c1cnccn1)B(O)O (stereo unspecified) + CN1CCN(c2cc(C(=O)Nc3cc4cc(-c5cnn(C)c5)ccc4cn3)ccn2)CC1,IC50,second compound 0.0316 µM,1.8 nM
same,IC50,second compound 0.1 µM,1.72 nM
same,IC50,second compound 0.316 µM,< 0.949 nM
same,IC50,second compound 1 µM,< 0.949 nM
same,IC50,second compound 3.16 µM,< 0.949 nM
same,IC50,second compound 10 µM,< 0.949 nM
same,"viability, T/C","second compound 0.0316 µM, first compound 0.000949 µM",83.2%
same,"viability, T/C","second compound 0.0316 µM, first compound 0.003 µM",23.3%
same,"viability, T/C","second compound 0.0316 µM, first compound 0.00949 µM",0.24%
same,"viability, T/C","second compound 0.0316 µM, first compound 0.03 µM",0.17%
same,"viability, T/C","second compound 0.0316 µM, first compound 0.0949 µM",0.13%
same,"viability, T/C","second compound 0.0316 µM, first compound 0.3 µM",0.12%
same,"viability, T/C","second compound 0.1 µM, first compound 0.000949 µM",84.3%
same,"viability, T/C","second compound 0.1 µM, first compound 0.003 µM",18.2%
same,"viability, T/C","second compound 0.1 µM, first compound 0.00949 µM",1.22%
same,"viability, T/C","second compound 0.1 µM, first compound 0.03 µM",0.15%
same,"viability, T/C","second compound 0.1 µM, first compound 0.0949 µM",0.19%
same,"viability, T/C","second compound 0.1 µM, first compound 0.3 µM",0.11%
same,"viability, T/C","second compound 0.316 µM, first compound 0.000949 µM",20.7%
same,"viability, T/C","second compound 0.316 µM, first compound 0.003 µM",1.68%
same,"viability, T/C","second compound 0.316 µM, first compound 0.00949 µM",0.49%
same,"viability, T/C","second compound 0.316 µM, first compound 0.03 µM",0.11%
same,"viability, T/C","second compound 0.316 µM, first compound 0.0949 µM",0.9%
same,"viability, T/C","second compound 0.316 µM, first compound 0.3 µM",0.12%
same,"viability, T/C","second compound 1 µM, first compound 0.000949 µM",0.18%
same,"viability, T/C","second compound 1 µM, first compound 0.003 µM",1.45%
same,"viability, T/C","second compound 1 µM, first compound 0.00949 µM",0.95%
same,"viability, T/C","second compound 1 µM, first compound 0.03 µM",0.06%
same,"viability, T/C","second compound 1 µM, first compound 0.0949 µM",0.3%
same,"viability, T/C","second compound 1 µM, first compound 0.3 µM",0.08%
same,"viability, T/C","second compound 3.16 µM, first compound 0.000949 µM",0.24%
same,"viability, T/C","second compound 3.16 µM, first compound 0.003 µM",0.69%
same,"viability, T/C","second compound 3.16 µM, first compound 0.00949 µM",0.24%
same,"viability, T/C","second compound 3.16 µM, first compound 0.03 µM",0.05%
same,"viability, T/C","second compound 3.16 µM, first compound 0.0949 µM",0.07%
same,"viability, T/C","second compound 3.16 µM, first compound 0.3 µM",0.09%
same,"viability, T/C","second compound 10 µM, first compound 0.000949 µM",1.09%
same,"viability, T/C","second compound 10 µM, first compound 0.003 µM",0.98%
same,"viability, T/C","second compound 10 µM, first compound 0.00949 µM",0.26%
same,"viability, T/C","second compound 10 µM, first compound 0.03 µM",2.17%
same,"viability, T/C","second compound 10 µM, first compound 0.0949 µM",0.59%
same,"viability, T/C","second compound 10 µM, first compound 0.3 µM",0.24%
CC1(C)CCC(CN2CCN(c3ccc(C(=O)NS(=O)(=O)c4ccc(NCC5CCOCC5)c([N+](=O)[O-])c4)c(Oc4cnc5[nH]ccc5c4)c3)CC2)=C(c2ccc(Cl)cc2)C1 + CN1CCN(c2cc(C(=O)Nc3cc4cc(-c5cnn(C)c5)ccc4cn3)ccn2)CC1,IC50,second compound 0.0316 µM,4750 nM
same,IC50,second compound 0.1 µM,5030 nM
same,IC50,second compound 0.316 µM,< 31.6 nM
same,IC50,second compound 1 µM,< 31.6 nM
same,IC50,second compound 3.16 µM,< 31.6 nM
same,IC50,second compound 10 µM,< 31.6 nM
same,"viability, T/C",[1],99.5%
same,"viability, T/C",[2],88.1%
same,"viability, T/C",[3],86%
same,"viability, T/C",[4],108%
same,"viability, T/C",[5],74.1%
same,"viability, T/C",[6],6.08%
same,"viability, T/C",[7],84.1%
same,"viability, T/C",[8],81.3%
same,"viability, T/C",[9],88.3%
same,"viability, T/C",[10],87.8%
same,"viability, T/C",[11],83.1%
same,"viability, T/C",[12],1.06%
same,"viability, T/C",[13],26.2%
same,"viability, T/C",[14],26.1%
same,"viability, T/C",[15],26.7%
same,"viability, T/C",[16],28.9%
same,"viability, T/C",[17],24.3%
same,"viability, T/C",[18],1.02%
same,"viability, T/C",[19],0.19%
same,"viability, T/C",[20],1.14%
same,"viability, T/C",[21],0.4%
same,"viability, T/C",[22],0.16%
same,"viability, T/C",[23],0.08%
same,"viability, T/C",[24],0.07%
same,"viability, T/C",[25],0.86%
same,"viability, T/C",[26],0.92%
same,"viability, T/C",[27],2.05%
same,"viability, T/C",[28],0.09%
same,"viability, T/C",[29],0.64%
same,"viability, T/C",[30],0.09%
same,"viability, T/C",[31],0.1%
same,"viability, T/C",[32],0.14%
same,"viability, T/C",[33],0.15%
same,"viability, T/C",[34],0.61%
same,"viability, T/C",[35],3.58%
same,"viability, T/C",[36],0.16%
CC1COCCN1c1cc(C2(S(C)(=N)=O)CC2)nc(-c2ccnc3[nH]ccc23)n1 (stereo unspecified) + CN1CCN(c2cc(C(=O)Nc3cc4cc(-c5cnn(C)c5)ccc4cn3)ccn2)CC1,IC50,second compound 0.0316 µM,2500 nM
same,IC50,second compound 0.1 µM,2820 nM
same,IC50,second compound 0.316 µM,< 31.6 nM
same,IC50,second compound 1 µM,< 31.6 nM
same,IC50,second compound 3.16 µM,< 31.6 nM
same,IC50,second compound 10 µM,< 31.6 nM
same,"viability, T/C",[1],98.2%
same,"viability, T/C",[2],95.1%
same,"viability, T/C",[3],80.2%
same,"viability, T/C",[4],74%
same,"viability, T/C",[5],42.8%
same,"viability, T/C",[6],17.2%
same,"viability, T/C",[7],84.2%
same,"viability, T/C",[8],75.7%
same,"viability, T/C",[9],77.5%
same,"viability, T/C",[10],64.9%
same,"viability, T/C",[11],49.3%
same,"viability, T/C",[12],12.5%
same,"viability, T/C",[13],21.9%
same,"viability, T/C",[14],26.2%
same,"viability, T/C",[15],20.1%
same,"viability, T/C",[16],15.6%
same,"viability, T/C",[17],10.6%
same,"viability, T/C",[18],3.29%
same,"viability, T/C",[19],0.11%
same,"viability, T/C",[20],0.2%
same,"viability, T/C",[21],0.96%
same,"viability, T/C",[22],2.48%
same,"viability, T/C",[23],0.1%
same,"viability, T/C",[24],0.06%
same,"viability, T/C",[25],1.57%
same,"viability, T/C",[26],1.16%
same,"viability, T/C",[27],0.14%
same,"viability, T/C",[28],0.1%
same,"viability, T/C",[29],0.12%
same,"viability, T/C",[30],0.1%
same,"viability, T/C",[31],0.14%
same,"viability, T/C",[32],0.36%
same,"viability, T/C",[33],1.74%
same,"viability, T/C",[34],0.18%
same,"viability, T/C",[35],3%
same,"viability, T/C",[36],0.19%
